Laboratory results as given in patent US12655116B2, “Substituted isophthalic acid diamides” (Bayer Aktiengesellschaft, priority 2020, dated 2026).

Key:
ABUTH [1] = experiment: Pre-emergence herbicidal action against ABUTH; format: in vivo, Abutilon theophrasti
How it was run: (§1)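 Seeds sown in sandy loam, soil-covered; compound sprayed on soil surface pre-emergence. Application: WP/EC, 600–800 l/ha, 0.2% wetting agent. Readout: visual % damage at 3 weeks.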

ALOMY [2] = experiment: Pre-emergence herbicidal action against ALOMY; format: in vivo, Alopecurus myosuroides; settings: 80 g/ha, pre-emergence, scored visually after 3 weeks vs untreated controls (100% = plants have died, 0% = like control plants)
How it was run: as §1

AMARE [3] = experiment: Pre-emergence herbicidal action against AMARE; format: in vivo, Amaranthus retroflexus
How it was run: as §1

AVEFA = experiment: Pre-emergence herbicidal action against AVEFA; format: in vivo, Avena fatua; settings: pre-emergence
How it was run: as §1

HORMU = experiment: Pre-emergence herbicidal action against HORMU; format: in vivo, Hordeum murinum; settings: 80 g/ha, pre-emergence
Excerpt: Seeds of monocotyledonous and dicotyledonous weed plants and crop plants are laid out in sandy loam soil in wood-fiber pots and covered with soil. The compounds of the invention, formulated in the form of wettable powders (WP) or as emulsion concentrates (EC), are then applied to the surface of the covering soil in the form of an aqueous suspension or emulsion at a water application rate equivalent to 600 to 800 l/ha, with addition of 0.2% wetting agent. After the treatment, the pots are placed in a greenhouse and kept under good growth conditions for the trial plants. The damage to the test plants is scored visually after a test period of 3 weeks by comparison with untreated controls (herbicidal activity in percent (%): 100% activity=the plants have died, 0% activity=like control plants). […] The tables below illustrate, in an illustrative manner, the post-emergence herbicidal action of the compounds of the invention, the herbicidal activity being stated in percent.

MATIN [4] = experiment: Pre-emergence herbicidal action against MATIN; format: in vivo, Matricaria inodora
How it was run: as §1

POLCO = experiment: Pre-emergence herbicidal action against POLCO; format: in vivo, Polygonum convolvulus
How it was run: as §1

STEME [5] = experiment: Pre-emergence herbicidal action against STEME; format: in vivo, Stellaria media
How it was run: as §1

VIOTR [6] = experiment: Pre-emergence herbicidal action against VIOTR; format: in vivo, Viola tricolor
How it was run: as §1

DIGSA [7] = experiment: Pre-emergence herbicidal action against DIGSA; format: in vivo, Digitaria sanguinalis
How it was run: as §1

ABUTH [8] = experiment: Post-emergence herbicidal action against ABUTH; format: in vivo, Abutilon theophrasti; settings: visual assessment about 3 weeks after treatment vs untreated controls
How it was run: (§2)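 Percent herbicidal action is rated by eye about 3 weeks after treatment against untreated controls, where 100% means dead plants and 0% means like controls. Plants in sandy loam are sprayed on green parts at the one-leaf stage with aqueous WP or EC preparations at 600 to 800 l/ha plus 0.2% wetting agent.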

ALOMY [9] = experiment: Post-emergence herbicidal action against ALOMY; format: in vivo, Alopecurus myosuroides; settings: dosage 20 g/ha, visual assessment about 3 weeks after treatment vs untreated controls
How it was run: as §2

AMARE [10] = experiment: Post-emergence herbicidal action against AMARE; format: in vivo, Amaranthus retroflexus; settings: 20 g/ha, visual assessment about 3 weeks after treatment, 100% = plants have died, 0% = like control plants
How it was run: as §2

MATIN [11] = experiment: Post-emergence herbicidal action against MATIN; format: in vivo, Matricaria inodora
How it was run: as §2

PHBPU = experiment: Post-emergence herbicidal action against PHBPU; format: in vivo, Pharbitis purpurea
How it was run: as §2

STEME [12] = experiment: Post-emergence herbicidal action against STEME; format: in vivo, Stellaria media
How it was run: as §2

VIOTR [13] = experiment: Post-emergence herbicidal action against VIOTR; format: in vivo, Viola tricolor; settings: 20 g/ha
How it was run: as §2

ECHCG [14] = experiment: Pre-emergence herbicidal action against ECHCG; format: in vivo, Echinochloa crus-galli
How it was run: as §1

SETVI [15] = experiment: Pre-emergence herbicidal action against SETVI; format: in vivo, Setaria viridis
How it was run: as §1

ECHCG [16] = experiment: Post-emergence herbicidal action against ECHCG; format: in vivo, Echinochloa crus-galli
How it was run: as §2

SETVI [17] = experiment: Post-emergence herbicidal action against SETVI; format: in vivo, Setaria viridis
How it was run: as §2

DIGSA [18] = experiment: Post-emergence herbicidal action against DIGSA; format: in vivo, Digitaria sanguinalis; settings: for Post-emergence action against DIGSA: 20 g/ha
How it was run: as §2

[19] = Tripleurospermum inodorum, 504 h, dosage 20 g/ha
[20] = 80 g/ha, scored visually after 3 weeks vs untreated controls (100% = plants have died, 0% = like control plants)
[21] = dosage 20 g/ha, scored visually after 3 weeks vs untreated controls, 100% = plants have died, 0% = like control plants
[22] = 20 g/ha, scored visually after 3 weeks vs untreated controls, 100% = plants have died, 0% = like control plants

CCCn1nnnc1NC(=O)c1ccc(C(F)(F)F)c(C(=O)NCC)c1C [Example 3-26]
pest or weed control at 80 g/ha (ABUTH [1]; Abutilon theophrasti, 504 h, 80 g/ha, scored visually after 3 weeks vs untreated controls (100% = plants have died, 0% = like control plants)): 100% | pest or weed control at 20 g/ha (ABUTH [1]; Abutilon theophrasti, 504 h, dosage 20 g/ha, scored visually after 3 weeks vs untreated controls, 100% = plants have died, 0% = like control plants, read-out: Pre-emergence action against ABUTH (herbicidal activity in percent)): 100% | pest or weed control at 80 g/ha (ALOMY [2]; Alopecurus myosuroides, 504 h): 80% | pest or weed control at 20 g/ha (AMARE [3]; Amaranthus retroflexus, 504 h, 20 g/ha, scored visually after 3 weeks vs untreated controls, 100% = plants have died, 0% = like control plants): 100% | pest or weed control at 80 g/ha (AMARE [3]; Amaranthus retroflexus, 504 h, 80 g/ha, scored visually after 3 weeks vs untreated controls, 100% = plants have died, 0% = like control plants): 100% | pest or weed control at 80 g/ha (AVEFA; Avena fatua, 504 h, 80 g/ha): 100% | pest or weed control at 20 g/ha (AVEFA; Avena fatua, 504 h, 20 g/ha, scored visually after 3 weeks, 100% = plants have died, 0% = like control plants): 80% | pest or weed control at 80 g/ha (HORMU; Hordeum murinum, 504 h): 80% | pest or weed control at 20 g/ha (MATIN [4]; [19]): 90% | pest or weed control at 80 g/ha (MATIN [4]; Tripleurospermum inodorum, 504 h, dosage 80 g/ha): 100% | pest or weed control at 20 g/ha (POLCO; Fallopia convolvulus, 504 h, dosage 20 g/ha): 80% | pest or weed control at 80 g/ha (POLCO; Fallopia convolvulus, 504 h, dosage 80 g/ha): 90% | pest or weed control at 20 g/ha (STEME [5]; Stellaria media, 504 h, dosage 20 g/ha): 80% | pest or weed control at 80 g/ha (STEME [5]; Stellaria media, 504 h, dosage 80 g/ha): 100% | pest or weed control at 20 g/ha (VIOTR [6]; Viola tricolor, 504 h, dosage 20 g/ha): 100% | pest or weed control at 80 g/ha (VIOTR [6]; Viola tricolor, 504 h, dosage 80 g/ha): 100% | pest or weed control at 80 g/ha (DIGSA [7]; Digitaria sanguinalis, 504 h, dosage 80 g/ha): 100% | pest or weed control at 5 g/ha (ABUTH [8]; Abutilon theophrasti, 504 h, dosage 5 g/ha): 80% | pest or weed control at 20 g/ha (ABUTH [8]; Abutilon theophrasti, 504 h, dosage 20 g/ha): 90% | pest or weed control at 20 g/ha (ALOMY [9]; Alopecurus myosuroides, 504 h): 80% | pest or weed control at 20 g/ha (AMARE [10]; Amaranthus retroflexus, 504 h): 90% | pest or weed control at 5 g/ha (MATIN [11]; Tripleurospermum inodorum, 504 h, dosage 5 g/ha): 90% | pest or weed control at 20 g/ha (MATIN [11]; [19]): 90% | pest or weed control at 5 g/ha (PHBPU; Ipomoea purpurea, 504 h, dosage 5 g/ha): 80% | pest or weed control at 20 g/ha (PHBPU; Ipomoea purpurea, 504 h, dosage 20 g/ha): 90% | pest or weed control at 20 g/ha (STEME [12]; Stellaria media, 504 h, 20 g/ha): 90% | pest or weed control at 20 g/ha (VIOTR [13]; Viola tricolor, 504 h): 90%

Cc1nnc(NC(=O)c2ccc(C(F)F)c(C(=O)NC3CC3)c2Cl)o1 [Example 6-124]
Pre-emergence action against ABUTH (herbicidal activity) (ABUTH [1]; [20]): 100% | Pre-emergence action against ABUTH (herbicidal activity in percent) (ABUTH [1]; [21]): 100% | Pre-emergence action against ALOMY (herbicidal activity) (ALOMY [2]): 90% | Pre-emergence action against AMARE in % (AMARE [3]; [22]): 100% | Pre-emergence action against AMARE in % (AMARE [3]; [20]): 100% | Pre-emergence action against AVEFA in % (AVEFA; 80 g/ha): 90% | Pre-emergence action against ECHCG in % (ECHCG [14]; 20 g/ha): 80% | Pre-emergence action against ECHCG in % (ECHCG [14]; 80 g/ha): 100% | Pre-emergence action against HORMU in % (HORMU): 80% | Pre-emergence action against MATIN in % (MATIN [4]; dosage 20 g/ha): 90% | Pre-emergence action against MATIN in % (MATIN [4]; dosage 80 g/ha): 100% | Pre-emergence action against SETVI in % (SETVI [15]; dosage 20 g/ha): 80% | Pre-emergence action against SETVI in % (SETVI [15]; dosage 80 g/ha): 100% | Pre-emergence action against STEME in % (STEME [5]; dosage 20 g/ha): 80% | Pre-emergence action against STEME in % (STEME [5]; dosage 80 g/ha): 90% | Pre-emergence action against VIOTR in % (VIOTR [6]; dosage 80 g/ha): 100% | Pre-emergence action against DIGSA in % (DIGSA [7]; dosage 80 g/ha): 100% | Post-emergence action against ABUTH in % (ABUTH [8]; dosage 5 g/ha): 80% | Post-emergence action against ABUTH in % (ABUTH [8]; dosage 20 g/ha): 80% | Post-emergence action against ALOMY in % (ALOMY [9]): 90% | Post-emergence action at 20 g/ha against AMARE in % (AMARE [10]): 100% | Post-emergence action against ECHCG in % (ECHCG [16]; dosage 20 g/ha): 80% | Post-emergence action against MATIN in % (MATIN [11]; dosage 20 g/ha): 80% | Post-emergence action against SETVI in % (SETVI [17]; dosage 5 g/ha): 80% | Post-emergence action against SETVI in % (SETVI [17]; dosage 20 g/ha): 90% | Post-emergence action against STEME in % (STEME [12]; 20 g/ha): 90% | Post-emergence action against STEME in % (STEME [12]; dosage 5 g/ha): 90% | Post-emergence action against VIOTR in % (VIOTR [13]): 100% | Post-emergence action against DIGSA (DIGSA [18]): 90%

CCNC(=O)c1c(C(F)(F)F)ccc(C(=O)Nc2nnc(C)o2)c1Br [Example 6-159]
Pre-emergence action against ABUTH (herbicidal activity) (ABUTH [1]; [20]): 100% | Pre-emergence action against ABUTH (herbicidal activity in percent) (ABUTH [1]; [21]): 100% | Pre-emergence action against ALOMY (herbicidal activity) (ALOMY [2]): 80% | Pre-emergence action against AMARE in % (AMARE [3]; [22]): 100% | Pre-emergence action against AMARE in % (AMARE [3]; [20]): 100% | Pre-emergence action against AVEFA in % (AVEFA; 80 g/ha): 90% | Pre-emergence action against ECHCG in % (ECHCG [14]; 80 g/ha): 100% | Pre-emergence action against HORMU in % (HORMU): 80% | Pre-emergence action against MATIN in % (MATIN [4]; dosage 20 g/ha): 100% | Pre-emergence action against MATIN in % (MATIN [4]; dosage 80 g/ha): 100% | Pre-emergence action against POLCO in % (POLCO; dosage 80 g/ha): 80% | Pre-emergence action against SETVI in % (SETVI [15]; dosage 80 g/ha): 100% | Pre-emergence action against STEME in % (STEME [5]; dosage 20 g/ha): 80% | Pre-emergence action against STEME in % (STEME [5]; dosage 80 g/ha): 100% | Pre-emergence action against VIOTR in % (VIOTR [6]; dosage 80 g/ha): 100% | Pre-emergence action against DIGSA in % (DIGSA [7]; dosage 20 g/ha): 90% | Pre-emergence action against DIGSA in % (DIGSA [7]; dosage 80 g/ha): 100% | Post-emergence action against ABUTH in % (ABUTH [8]; dosage 5 g/ha): 90% | Post-emergence action against ABUTH in % (ABUTH [8]; dosage 20 g/ha): 100% | Post-emergence action against ALOMY in % (ALOMY [9]): 80% | Post-emergence action at 20 g/ha against AMARE in % (AMARE [10]): 100% | Post-emergence action against ECHCG in % (ECHCG [16]; dosage 5 g/ha): 80% | Post-emergence action against ECHCG in % (ECHCG [16]; dosage 20 g/ha): 90% | Post-emergence action against MATIN in % (MATIN [11]; dosage 20 g/ha): 90% | Post-emergence action against PHBPU in % (PHBPU; dosage 20 g/ha): 80% | Post-emergence action against STEME in % (STEME [12]; 20 g/ha): 90% | Post-emergence action against DIGSA in % (DIGSA [18]; 5 g/ha): 80% | Post-emergence action against DIGSA (DIGSA [18]): 90%
